Key:
Type in all cases: in vivo
[1] = tested on: Beet Armyworm (Spodoptera exigua, LAPHEG) ("BAW"); assay: Bioassays on BAW, 128-well diet tray assay; conditions: 168 h, second instar larvae, 50 μg/cm^2 on artificial diet, 25° C., five to seven days, average of eight wells, read-out: BAW % Control (or Mortality) rating
Summary of the method: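 One to five second-instar larvae were placed per well on artificial diet surface-treated with 50 μg/cm^2 compound from 90:10 acetone-water, dried before infestation. Trays were held at 25 °C, 14:10 light-dark, for five to seven days. Percent mortality was averaged over eight wells.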

[2] = tested on: Cabbage Looper (Trichoplusia ni, TRIPNI) ("CL"); assay: Bioassays on CL, 128-well diet tray assay; conditions: 168 h, second instar larvae, 50 μg/cm^2 on artificial diet, 25° C., five to seven days, average of eight wells, read-out: CL % Control (or Mortality) rating
Summary of the method: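 Second-instar larvae (one to five per well) on artificial diet surface-treated with 50 μg/cm^2 compound in 90:10 acetone-water, eight wells per treatment. Held at 25° C., 14:10 light-dark for five to seven days. Percent mortality scored per well and averaged over the eight wells.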

[3] = tested on: Green Peach Aphid (Myzus persicae, MYZUPE) ("GPA"); assay: Bioassays on GPA, foliar spray of infested cabbage seedlings; conditions: 72 h, 200 ppm spray on cabbage seedlings, graded after three days, Abbott corrected % control, read-out: GPA % Control (or Mortality) rating
Description: Certain molecules disclosed in this document were tested against GPA using procedures described in the following example. In the reporting of the results, the “GPA Rating Table” was used (See Table Section).
Cabbage seedlings grown in 3-inch pots, with 2-3 small (3-5 cm) true leaves, were used as test substrate. The seedlings were infested with 20-50 GPA (wingless adult and nymph stages) one day prior to chemical application. Four pots with individual seedlings were used for each treatment. Test compounds (2 mg) were dissolved in 2 mL of acetone/methanol (1:1) solvent, forming stock solutions of 1000 ppm test compound. The stock solutions were diluted 5× with 0.025% Tween 20 in water to obtain the solution at 200 ppm test compound. A hand-held aspirator-type sprayer was used for spraying a solution to both sides of […] leaves until runoff. Reference plants (solvent check) were sprayed with the diluent only containing 20% by volume of acetone/methanol (1:1) solvent. Treated plants were held in a holding room for three days at approximately 25° C. and ambient relative humidity (RH) prior to grading. Evaluation was conducted by counting the number of live aphids per plant under a microscope. Percent Control was measured by using Abbott's correction formula (W. S. Abbott, “A Method of Computing the Effectiveness of an Insecticide” J. Econ. Entomol. 18 (1925), pp. 265-267) as follows. Corrected % Control=100*(X−Y)/X • where • X=No. of live aphids on solvent check plants and • Y=No. of live aphids on treated plants

[4] = tested on: Yellow Fever Mosquito (Aedes aegypti, AEDSAE) ("YFM"); assay: Bioassays on YFM, 96-well plate larval assay; conditions: about 1 day-old larvae, from 4000 ppm DMSO master plate diluted, room temperature, scored after 3 days
Summary of the method: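 Compounds from 4000 ppm DMSO master plates, diluted in 90:10 water:acetone, dispensed into 96-well plates, six replicates. About 1-day-old larvae added in liver-powder water. Wells covered, held 3 days at room temperature, then scored for mortality.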

Work on CCc1ccccc1-c1ccccc1NC(=S)Nc1ccc(-c2ncn(-c3ccc(OC(F)(F)F)cc3)n2)cc1 [F4, 1-(2′-Ethyl-[1,1′-biphenyl]-2-yl)-3-(4-(1-(4-(trifluoromethoxy)phenyl)-1H-1,2,4-triazol-3-yl)phenyl)thiourea] yielded a mortality at 50 µg/cm2 [1] of 50 to 100%, a mortality at 50 µg/cm2 [2] of 50 to 100% and a mortality at 200 ppm [3] of 0%. The “YFM % Control (or Mortality) rating” value [4] was “A (80-100)”.

In the case of CC(C)c1ccccc1-c1ccccc1NC(=O)Nc1ccc(-c2ncn(-c3ccc(OC(F)(F)F)cc3)n2)cc1 [F63, 1-(2′-Isopropyl-[1,1′-biphenyl]-2-yl)-3-(4-(1-(4-(trifluoromethoxy)phenyl)-1H-1,2,4-triazol-3-yl)phenyl)urea], the mortality at 50 µg/cm2 [1] is reported as 50 to 100%, the mortality at 50 µg/cm2 [2] is reported as 50 to 100% and the mortality at 200 ppm [3] is reported as 0 to 80%. For the same molecule, the “YFM % Control (or Mortality) rating” value [4] was “D (No activity noticed in this bioassay)”.

CC(C)CC(C)c1ccccc1NC(=O)Nc1ccc(-c2ncn(-c3ccc(OC(F)(F)F)cc3)n2)cc1 (centres unmarked) [F18, 1-(2-(4-methylpentan-2-yl)phenyl)-3-(4-(1-(4-(trifluoromethoxy)phenyl)-1H-1,2,4-triazol-3-yl)phenyl)urea] showed a mortality at 50 µg/cm2 [1] of 50 to 100%, a mortality at 50 µg/cm2 [2] of 50 to 100% and a mortality at 200 ppm [3] of 0%. The “YFM % Control (or Mortality) rating” value [4] was “D (No activity noticed in this bioassay)”.

For Cc1ccccc1-c1cccnc1NC(=S)Nc1ccc(-c2ncn(-c3ccc(OC(F)(F)F)cc3)n2)cc1 [F11, 1-(3-(o-Tolyl)pyridin-2-yl)-3-(4-(1-(4-(trifluoromethoxy)phenyl)-1H-1,2,4-triazol-3-yl)phenyl)thiourea], the mortality at 50 µg/cm2 [1] was 50 to 100%, the mortality at 200 ppm [3] was 0 to 80% and the “YFM % Control (or Mortality) rating” value [4] was “D (No activity noticed in this bioassay)”.

For Cc1ccccc1-c1ccccc1NC(=O)NCCCc1ccc(-c2ncn(-c3ccc(OC(F)(F)F)cc3)n2)cc1 [FA1, 1-(2′-Methyl-[1,1′-biphenyl]-2-yl)-3-(3-(4-(1-(4-(trifluoromethoxy)phenyl)-1H-1,2,4-triazol-3-yl)phenyl)propyl)urea], the mortality at 50 µg/cm2 [1] was 0%, the mortality at 50 µg/cm2 [2] was 50 to 100% and the mortality at 200 ppm [3] was 0%. For the same molecule, the “YFM % Control (or Mortality) rating” value [4] was “A (80-100)”.

O=C(NCCCc1ccc(-c2ncn(-c3ccc(OC(F)(F)F)cc3)n2)cc1)Nc1ccccc1-c1ccccc1 [P9, 1-([1,1′-Biphenyl]-2-yl)-3-(3-(4-(1-(4-(trifluoromethoxy)phenyl)-1H-1,2,4-triazol-3-yl)phenyl)propyl)urea] showed a mortality at 50 µg/cm2 [1] of 0%, a mortality at 50 µg/cm2 [2] of 50 to 100% and a mortality at 200 ppm [3] of 0%. The “YFM % Control (or Mortality) rating” value [4] was “B (More than 0 - Less than 80)”.

With O=C(Nc1ccc(-c2ncn(-c3ccc(OC(F)(F)C(F)(F)F)cc3)n2)cc1)Nc1ccccc1-c1ccccc1 [F68, 1-([1,1′-biphenyl]-2-yl)-3-(4-(1-(4-(perfluoroethoxy)phenyl)-1H-1,2,4-triazol-3-yl)phenyl)urea] the mortality at 50 µg/cm2 [1] was 50 to 100%, the mortality at 50 µg/cm2 [2] was 50 to 100% and the mortality at 200 ppm [3] was 0 to 80%. For the same molecule, the “YFM % Control (or Mortality) rating” value [4] was “A (80-100)”.

CCc1ccccc1NC(=O)Nc1ccc(-c2ncn(-c3ccc(OC(F)(F)F)cc3)n2)cc1 [F46, 1-(2-Ethylphenyl)-3-(4-(1-(4-(trifluoromethoxy)phenyl)-1H-1,2,4-triazol-3-yl)phenyl)urea] gave a mortality at 50 µg/cm2 [1] of 50 to 100%, a mortality at 50 µg/cm2 [2] of 50 to 100% and a mortality at 200 ppm [3] of 0 to 80%. The “YFM % Control (or Mortality) rating” value [4] was “B (More than 0 - Less than 80)”.

For O=C(Nc1ccc(-c2ncn(-c3ccc(OC(F)(F)F)cc3)n2)cc1)Nc1ccccc1-c1ccccc1 [F31, 1-([1,1′-biphenyl]-2-yl)-3-(4-(1-(4-(trifluoromethoxy)phenyl)-1H-1,2,4-triazol-3-yl)phenyl)urea], the mortality at 50 µg/cm2 [1] was 50 to 100%, the mortality at 50 µg/cm2 [2] was 50 to 100% and the mortality at 200 ppm [3] was 0 to 80%. For the same molecule, the “YFM % Control (or Mortality) rating” value [4] was “A (80-100)”.

CC(C)c1cccc(NC(=O)NCCCc2ccc(-c3ncn(-c4ccc(OC(F)(F)F)cc4)n3)cc2)c1 [P2, 1-(3-Isopropylphenyl)-3-(3-(4-(1-(4-(trifluoromethoxy)phenyl)-1H-1,2,4-triazol-3-yl)phenyl)propyl)urea] was tested, and the mortality at 50 µg/cm2 [1] was 0 to 50%, the mortality at 50 µg/cm2 [2] was 0% and the mortality at 200 ppm [3] was 0%. The “YFM % Control (or Mortality) rating” value [4] was “D (No activity noticed in this bioassay)”.

Molecule CC(C)c1ccccc1N(C(=O)Nc1ccc(-c2ncn(-c3ccc(OC(F)(F)F)cc3)n2)cc1)C(N)=S [F6, N-[2-(Propan-2-yl)phenyl]-N-(4-{1-[4-(trifluoromethoxy)phenyl]-1H-1,2,4-triazol-3-yl}phenyl)dicarbonimidothioic diamide] has a mortality at 50 µg/cm2 [1] of 50 to 100%, a mortality at 50 µg/cm2 [2] of 50 to 100% and a mortality at 200 ppm [3] of 0 to 80%. The “YFM % Control (or Mortality) rating” value [4] was “A (80-100)”.

Work on CC(C)c1ccccc1-c1ccccc1NC(=S)Nc1ccc(-c2ncn(-c3ccc(OC(F)(F)F)cc3)n2)cc1 [F28, 1-(2′-isopropyl-[1,1′-biphenyl]-2-yl)-3-(4-(1-(4-(trifluoromethoxy)phenyl)-1H-1,2,4-triazol-3-yl)phenyl)thiourea] yielded a mortality at 50 µg/cm2 [1] of 0 to 50%, a mortality at 50 µg/cm2 [2] of 50 to 100% and a mortality at 200 ppm [3] of 0 to 80%. The “YFM % Control (or Mortality) rating” value [4] was “D (No activity noticed in this bioassay)”.

With CCc1cccc(C)c1NC(=O)NCCCc1ccc(-c2ncn(-c3ccc(OC(F)(F)F)cc3)n2)cc1 [P5, 1-(2-Ethyl-6-methylphenyl)-3-(3-(4-(1-(4-(trifluoromethoxy)phenyl)-1H-1,2,4-triazol-3-yl)phenyl)propyl)urea] the mortality at 50 µg/cm2 [1] was 0%, the mortality at 50 µg/cm2 [2] was 0% and the mortality at 200 ppm [3] was 0%. The “YFM % Control (or Mortality) rating” value [4] was “D (No activity noticed in this bioassay)”.

Molecule CSc1ccccc1-c1cccnc1NC(=S)Nc1ccc(-c2ncn(-c3ccc(OC(F)(F)F)cc3)n2)cc1 [F22, 1-(3-(2-(Methylthio)phenyl)pyridin-2-yl)-3-(4-(1-(4-(trifluoromethoxy)phenyl)-1H-1,2,4-triazol-3-yl)phenyl)thiourea] has a mortality at 50 µg/cm2 [1] of 0 to 50%, a mortality at 50 µg/cm2 [2] of 50 to 100% and a mortality at 200 ppm [3] of 0 to 80%. The “YFM % Control (or Mortality) rating” value [4] was “D (No activity noticed in this bioassay)”.

C#Cc1ccccc1NC(=O)Nc1ccc(-c2ncn(-c3ccc(OC(F)(F)F)cc3)n2)cc1 [F5, 1-(2-Ethynylphenyl)-3-(4-(1-(4-(trifluoromethoxy)phenyl)-1H-1,2,4-triazol-3-yl)phenyl)urea] showed a mortality at 50 µg/cm2 [1] of 50 to 100%, a mortality at 50 µg/cm2 [2] of 50 to 100% and a mortality at 200 ppm [3] of 0%. The “YFM % Control (or Mortality) rating” value [4] was “D (No activity noticed in this bioassay)”.

For CCc1ccccc1-c1cccnc1NC(=O)Nc1ccc(-c2ncn(-c3ccc(OC(F)(F)F)cc3)n2)cc1 [F16, 1-(3-(2-Ethylphenyl)pyridin-2-yl)-3-(4-(1-(4-(trifluoromethoxy)phenyl)-1H-1,2,4-triazol-3-yl)phenyl)urea], the mortality at 50 µg/cm2 [1] was 50 to 100%, the mortality at 50 µg/cm2 [2] was 50 to 100% and the mortality at 200 ppm [3] was 0 to 80%. For the same molecule, the “YFM % Control (or Mortality) rating” value [4] was “D (No activity noticed in this bioassay)”.

CCCc1ccccc1NC(=O)Nc1ccc(-c2ncn(-c3ccc(OC(F)(F)F)cc3)n2)cc1 [F37, 1-(2-propylphenyl)-3-(4-(1-(4-(trifluoromethoxy)phenyl)-1H-1,2,4-triazol-3-yl)phenyl)urea] showed a mortality at 50 µg/cm2 [1] of 0 to 50%, a mortality at 50 µg/cm2 [2] of 50 to 100% and a mortality at 200 ppm [3] of 0 to 80%. For the same molecule, the “YFM % Control (or Mortality) rating” value [4] was “B (More than 0 - Less than 80)”.

In the case of Fc1ccc(NC(=S)Nc2ccc(-c3ncn(-c4ccc(OC(F)(F)F)cc4)n3)cc2)cc1 [F72, 1-(4-Fluorophenyl)-3-(4-(1-(4-(trifluoromethoxy)phenyl)-1H-1,2,4-triazol-3-yl)phenyl)thiourea], the mortality at 50 µg/cm2 [1] is reported as 50 to 100%, the mortality at 200 ppm [3] is reported as 0% and the “YFM % Control (or Mortality) rating” value [4] is reported as “B (More than 0 - Less than 80)”.

For COc1ccc(NC(=O)NCCCc2ccc(-c3ncn(-c4ccc(OC(F)(F)F)cc4)n3)cc2)c(C)c1 [P3, 1-(4-Methoxy-2-methylphenyl)-3-(3-(4-(1-(4-(trifluoromethoxy)phenyl)-1H-1,2,4-triazol-3-yl)phenyl)propyl)urea], the mortality at 50 µg/cm2 [1] was 0%, the mortality at 50 µg/cm2 [2] was 0% and the mortality at 200 ppm [3] was 0%. The “YFM % Control (or Mortality) rating” value [4] was “D (No activity noticed in this bioassay)”.
